Patent US10251892B2, “Bicyclic heterocycles as FGFR4 inhibitors” (Incyte Corporation, priority 2015, dated 2019)

Biological target: FGFR3 enzyme (Homo sapiens (Human), UniProt P22607)
Experiment: FGFR Enzymatic Assay (peptide phosphorylation, FRET), FGFR3
Format: biochemical
Settings: IC50 ratio showing FGFR3 selectivity; pre-incubated for 4 hours
Description: The inhibitor potency of the exemplified compounds was measured in an enzyme assay that measures peptide phosphorylation using FRET measurements to detect product formation. Inhibitors were serially diluted in DMSO and a volume of 0.5 μL was transferred to the wells of a 384-well plate.
GraphPad prism3 was used to analyze the data.

Chain of FGFR3 enzyme (P22607 23-806): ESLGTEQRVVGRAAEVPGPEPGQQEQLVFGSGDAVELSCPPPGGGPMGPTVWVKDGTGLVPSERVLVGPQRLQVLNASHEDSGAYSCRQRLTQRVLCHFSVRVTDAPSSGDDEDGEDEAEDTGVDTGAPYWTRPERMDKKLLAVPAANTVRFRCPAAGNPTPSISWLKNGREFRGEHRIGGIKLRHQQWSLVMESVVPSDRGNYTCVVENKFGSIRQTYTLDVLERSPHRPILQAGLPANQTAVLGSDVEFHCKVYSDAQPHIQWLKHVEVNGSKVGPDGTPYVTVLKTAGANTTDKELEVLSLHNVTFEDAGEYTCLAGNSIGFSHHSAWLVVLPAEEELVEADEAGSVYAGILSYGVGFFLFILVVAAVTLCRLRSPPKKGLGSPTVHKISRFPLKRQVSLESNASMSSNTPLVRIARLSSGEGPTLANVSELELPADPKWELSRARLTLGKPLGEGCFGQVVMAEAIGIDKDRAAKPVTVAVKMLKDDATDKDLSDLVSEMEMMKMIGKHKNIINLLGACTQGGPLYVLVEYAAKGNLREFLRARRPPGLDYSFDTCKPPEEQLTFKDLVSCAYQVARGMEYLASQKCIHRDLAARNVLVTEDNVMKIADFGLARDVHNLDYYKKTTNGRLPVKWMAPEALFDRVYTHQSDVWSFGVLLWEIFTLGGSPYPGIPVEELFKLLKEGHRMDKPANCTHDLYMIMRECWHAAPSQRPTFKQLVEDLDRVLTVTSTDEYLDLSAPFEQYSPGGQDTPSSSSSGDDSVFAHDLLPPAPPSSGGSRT

Compound | FGFR1/FGFR3 | FGFR4/FGFR3
COc1cc(OC)c(F)c(N2Cc3cnc(-c4cn(Cc5cccnc5)nc4C)cc3C3(CC3)C2=O)c1F [Example 155, 2′-(2,6-difluoro-3,5-dimethoxyphenyl)-6′-(3-methyl-1-(pyridin-3-ylmethyl)-1H-pyrazol-4-yl)-1′H-spiro[cyclopropane-1,4′-[2,7]naphthyridin]-3′(2′H)-one] | >5 | >1
COc1cc(OC)c(F)c(N2Cc3cnc(-c4cn(C)nc4C)cc3N(c3cnc(C)cn3)C2=O)c1F [Example 107, 3-(2,6-difluoro-3,5-dimethoxyphenyl)-7-(1,3-dimethyl-1H-pyrazol-4-yl)-1-(5-methylpyrazin-2-yl)-3,4-dihydropyrido[4,3-d]pyrimidin-2(1H)-one] | >3 | >10
COc1cc(OC)c(F)c(N2Cc3cnc(-c4cn(C)nc4C)cc3N(c3cc(F)cc(C#N)c3)C2=O)c1F [Example 78, 3-(3-(2,6-difluoro-3,5-dimethoxyphenyl)-7-(1,3-dimethyl-1H-pyrazol-4-yl)-2-oxo-3,4-dihydropyrido[4,3-d]pyrimidin-1(2H)-yl)-5-fluorobenzonitrile] | >5 | >3
COc1cc(OC)c(F)c(N2Cc3cnc(-c4cn(CCN(C)C)nc4C)cc3C3(CC3)C2=O)c1F [Example 164, 2′-(2,6-difluoro-3,5-dimethoxyphenyl)-6′-(1-(2-(dimethylamino)ethyl)-3-methyl-1H-pyrazol-4-yl)-1′H-spiro[cyclopropane-1,4′-[2,7]naphthyridin]-3′(2′H)-one] | >3 | >3
COc1cc(OC)c(F)c(N2Cc3cnc(-c4cn(C)nc4C)cc3C3(CC3)C2=O)c1F [Example 21, 2′-(2,6-difluoro-3,5-dimethoxyphenyl)-6′-(1,3-dimethyl-1H-pyrazol-4-yl)-1′,2′-dihydro-3′H-spiro[cyclopropane-1,4′-[2,7]naphthyridin]-3′-one] | >5 | 
CCN1C(=O)N(c2c(F)c(OC)cc(OC)c2F)Cc2cnc(-c3ccc(CC#N)cc3)cc21 [Example 180, 2-(4-(3-(2,6-difluoro-3,5-dimethoxyphenyl)-1-ethyl-2-oxo-1,2,3,4-tetrahydropyrido[4,3-d]pyrimidin-7-yl)phenyl)acetonitrile] | >5 | >5
COc1cc(OC)c(F)c(N2Cc3cnc(-c4cnn(C5(CC#N)CN(C(C)=O)C5)c4)cc3C3(CC3)C2=O)c1F [Example 56, 2-(1-acetyl-3-(4-(2′-(2,6-difluoro-3,5-dimethoxyphenyl)-3′-oxo-2′,3′-dihydro-1′H-spiro[cyclopropane-1,4′-[2,7]naphthyridine]-6′-yl)-1H-pyrazol-1-yl)azetidin-3-yl)acetonitrile] | >5 | >1
COC(=O)Nc1ccc(N2C(=O)N(c3c(F)c(OC)cc(OC)c3F)Cc3cnc(-c4cn(C)nc4C)cc32)cc1 [Example 123, Methyl 4-(3-(2,6-difluoro-3,5-dimethoxyphenyl)-7-(1,3-dimethyl-1H-pyrazol-4-yl)-2-oxo-3,4-dihydropyrido[4,3-d]pyrimidin-1(2H)-yl)phenylcarbamate] | >5 | >3
COc1cc(OC)c(F)c(N2Cc3cnc(-c4cnn(CCN5CCC(OC)C5)c4)cc3C3(CC3)C2=O)c1F (stereo not shown) [Example 161, 2′-(2,6-difluoro-3,5-dimethoxyphenyl)-6′-(1-(2-(3-methoxypyrrolidin-1-yl)ethyl)-1H-pyrazol-4-yl)-1′H-spiro[cyclopropane-1,4′-[2,7]naphthyridin]-3′(2′H)-one] | >5 | >3
COc1cc(OC)c(F)c(N2Cc3cnc(-c4cn(C)nc4C)cc3N(CC3CCOCC3)C2=O)c1F [Example 37, 3-(2,6-difluoro-3,5-dimethoxyphenyl)-7-(1,3-dimethyl-1H-pyrazol-4-yl)-1-((tetrahydro-2H-pyran-4-yl)methyl)-3,4-dihydropyrido[4,3-d]pyrimidin-2(1H)-one] | >1 | >10
CCn1cc(-c2cc3c(cn2)CN(c2c(F)c(OC)cc(OC)c2F)C(=O)C32CC2)c(C)n1 [Example 158, 2′-(2,6-difluoro-3,5-dimethoxyphenyl)-6′-(1-ethyl-3-methyl-1H-pyrazol-4-yl)-1′H-spiro[cyclopropane-1,4′-[2,7]naphthyridin]-3′(2′H)-one] | >5 | >3

More lines, now with the values ahead:

FGFR1/FGFR3 | FGFR4/FGFR3 | Compound
>1 | >5 | CCCN1C(=O)N(c2c(F)c(OC)cc(OC)c2F)Cc2cnc(-c3cn(C)nc3C)cc21 [Example 30, 3-(2,6-difluoro-3,5-dimethoxyphenyl)-7-(1,3-dimethyl-1H-pyrazol-4-yl)-1-propyl-3,4-dihydropyrido[4,3-d]pyrimidin-2(1H)-one]
>5 | >10 | COc1cc(OC)c(F)c(N2Cc3cnc(-c4cn(C)nc4C)cc3N(Cc3ccccn3)C2=O)c1F [Example 94, 3-(2,6-difluoro-3,5-dimethoxyphenyl)-7-(1,3-dimethyl-1H-pyrazol-4-yl)-1-(pyridin-2-ylmethyl)-3,4-dihydropyrido[4,3-d]pyrimidin-2(1H)-one]
>1 | >5 | COc1cc(OC)c(F)c(N2Cc3cnc(-c4cn(C)nc4C)cc3N(CC3CC3)C2=O)c1F [Example 29, 1-(cyclopropylmethyl)-3-(2,6-difluoro-3,5-dimethoxyphenyl)-7-(1,3-dimethyl-1H-pyrazol-4-yl)-3,4-dihydropyrido[4,3-d]pyrimidin-2(1H)-one]
>5 | >10 | COc1cc(OC)c(F)c(N2Cc3cnc(-c4cn(C)nc4C)cc3N(Cc3cnn(C)c3)C2=O)c1F [Example 72, 3-(2,6-difluoro-3,5-dimethoxyphenyl)-7-(1,3-dimethyl-1H-pyrazol-4-yl)-1-((1-methyl-1H-pyrazol-4-yl)methyl)-3,4-dihydropyrido[4,3-d]pyrimidin-2(1H)-one]
>5 | >10 | COc1cc(OC)c(F)c(N2Cc3cnc(-c4cn(C)nc4C)cc3N(Cc3cccnn3)C2=O)c1F [Example 88, 3-(2,6-difluoro-3,5-dimethoxyphenyl)-7-(1,3-dimethyl-1H-pyrazol-4-yl)-1-(pyridazin-3-ylmethyl)-3,4-dihydropyrido[4,3-d]pyrimidin-2(1H)-one]
>10 | >10 | COc1ccc(CN2C(=O)N(c3c(F)c(OC)cc(OC)c3F)Cc3cnc(-c4cn(C)nc4C)cc32)cn1 [Example 59, 3-(2,6-difluoro-3,5-dimethoxyphenyl)-7-(1,3-dimethyl-1H-pyrazol-4-yl)-1-((6-methoxypyridin-3-yl)methyl)-3,4-dihydropyrido[4,3-d]pyrimidin-2(1H)-one]
>5 | >5 | COc1cc(OC)c(F)c(N2Cc3cnc(-c4cn(C)nc4C)cc3N(c3ccn(C)n3)C2=O)c1F [Example 100, 3-(2,6-difluoro-3,5-dimethoxyphenyl)-7-(1,3-dimethyl-1H-pyrazol-4-yl)-1-(1-methyl-1H-pyrazol-3-yl)-3,4-dihydropyrido[4,3-d]pyrimidin-2(1H)-one]
>10 | >10 | COc1cc(OC)c(F)c(N2Cc3cnc(-c4cn(C)nc4C)cc3N(Cc3cnn(C)c3C)C2=O)c1F [Example 48, 3-(2,6-difluoro-3,5-dimethoxyphenyl)-7-(1,3-dimethyl-1H-pyrazol-4-yl)-1-[(1,5-dimethyl-1H-pyrazol-4-yl)methyl]-3,4-dihydropyrido[4,3-d]pyrimidin-2(1H)-one]
